According to ChEMBL document CHEMBL2176988 (J Med Chem, 2012):

Key:
[1] = biological target: T1, Neuronal acetylcholine receptor; alpha3/beta4 (Homo sapiens, UniProt P30926+P32297); test: Agonist activity at human alpha3beta4 nAChR expressed in CHO cells assessed as calcium flux by calcium4-based FLIPR assay relative to nicotine; format: functional, cell-based
[2] = biological target: T1, Neuronal acetylcholine receptor; alpha3/beta4; test: Agonist activity at human alpha3beta4 nAChR expressed in CHO cells assessed as calcium flux by calcium4-based FLIPR assay; format: functional, cell-based
[3] = biological target: T2, Neuronal acetylcholine receptor; alpha4/beta2 (Homo sapiens, UniProt P17787+P43681); test: Agonist activity at alpha4beta2 nAChR in human SH-EP1 cells assessed as calcium flux by calcium4-based FLIPR assay relative to nicotine; format: functional, cell-based
[4] = biological target: T2, Neuronal acetylcholine receptor; alpha4/beta2; test: Agonist activity at alpha4beta2 nAChR in human SH-EP1 cells assessed as calcium flux by calcium4-based FLIPR assay; format: functional, cell-based
[5] = biological target: Neuronal acetylcholine receptor subunit alpha-7 (Homo sapiens, UniProt P36544); test: Displacement of [3H]epibatidine from human alpha7 nAChR expressed in CHO cells after 2 hrs by liquid scintillation counting; format: cell-based
[6] = biological target: T1, Neuronal acetylcholine receptor; alpha3/beta4; test: Displacement of [3H]epibatidine from human alpha3beta4 nAChR expressed in CHO cells after 2 hrs by liquid scintillation counting; format: cell-based
[7] = biological target: Neuronal acetylcholine receptor; alpha4/beta2 (Rattus norvegicus, UniProt P09483+P12390); test: Displacement of [3H]epibatidine from alpha4beta2 nAChR in Sprague-Dawley rat cortex after 2 hrs by liquid scintillation counting
[8] = biological target: T2, Neuronal acetylcholine receptor; alpha4/beta2; test: Displacement of [3H]nicotine from alpha4beta2 nAChR in human SH-EP1 cells after 2 hrs by liquid scintillation assay; format: cell-based

T1 sequence (P30926 whole entry): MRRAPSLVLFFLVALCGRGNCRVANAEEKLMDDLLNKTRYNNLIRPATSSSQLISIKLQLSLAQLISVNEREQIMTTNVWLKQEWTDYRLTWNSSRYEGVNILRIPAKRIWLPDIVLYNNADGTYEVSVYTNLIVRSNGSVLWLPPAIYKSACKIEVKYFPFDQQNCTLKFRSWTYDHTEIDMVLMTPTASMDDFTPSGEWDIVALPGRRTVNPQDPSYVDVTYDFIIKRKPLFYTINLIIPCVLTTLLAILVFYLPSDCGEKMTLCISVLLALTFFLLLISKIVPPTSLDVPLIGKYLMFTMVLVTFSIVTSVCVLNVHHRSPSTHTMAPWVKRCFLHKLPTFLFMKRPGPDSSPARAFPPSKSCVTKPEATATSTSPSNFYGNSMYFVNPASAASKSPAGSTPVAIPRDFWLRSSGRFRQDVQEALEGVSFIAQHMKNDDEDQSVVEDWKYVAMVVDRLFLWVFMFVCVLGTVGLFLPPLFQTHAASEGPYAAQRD
T1 sequence (P32297 whole entry): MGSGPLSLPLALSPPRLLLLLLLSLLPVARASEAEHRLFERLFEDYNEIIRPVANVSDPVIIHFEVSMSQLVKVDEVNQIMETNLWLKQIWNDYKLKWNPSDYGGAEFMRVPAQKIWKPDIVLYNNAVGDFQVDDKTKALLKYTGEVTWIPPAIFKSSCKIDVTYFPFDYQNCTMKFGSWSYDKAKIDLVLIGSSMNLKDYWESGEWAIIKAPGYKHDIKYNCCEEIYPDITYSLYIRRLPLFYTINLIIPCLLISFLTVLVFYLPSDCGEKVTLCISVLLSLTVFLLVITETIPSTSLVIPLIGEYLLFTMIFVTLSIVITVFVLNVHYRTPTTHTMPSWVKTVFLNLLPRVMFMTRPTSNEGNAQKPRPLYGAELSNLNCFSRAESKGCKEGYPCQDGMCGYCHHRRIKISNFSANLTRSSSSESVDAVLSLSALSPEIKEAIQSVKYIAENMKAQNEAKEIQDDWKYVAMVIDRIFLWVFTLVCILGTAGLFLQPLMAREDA
Neuronal acetylcholine receptor subunit alpha-7, sequence (P36544 whole entry): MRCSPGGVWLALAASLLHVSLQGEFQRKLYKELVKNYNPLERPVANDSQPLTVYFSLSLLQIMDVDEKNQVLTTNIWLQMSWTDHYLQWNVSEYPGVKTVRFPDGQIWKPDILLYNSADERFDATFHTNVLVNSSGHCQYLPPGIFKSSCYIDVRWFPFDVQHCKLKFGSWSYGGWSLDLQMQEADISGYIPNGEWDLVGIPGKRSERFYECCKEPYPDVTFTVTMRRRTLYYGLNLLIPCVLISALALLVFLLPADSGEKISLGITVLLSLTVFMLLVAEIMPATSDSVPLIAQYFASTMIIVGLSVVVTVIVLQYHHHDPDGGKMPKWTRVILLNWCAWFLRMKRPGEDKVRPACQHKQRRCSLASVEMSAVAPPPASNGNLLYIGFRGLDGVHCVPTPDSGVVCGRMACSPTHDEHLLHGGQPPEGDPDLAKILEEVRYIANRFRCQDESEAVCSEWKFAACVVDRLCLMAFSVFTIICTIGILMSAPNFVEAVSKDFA
Neuronal acetylcholine receptor; alpha4/beta2 (Rattus norvegicus, UniProt P09483+P12390), sequence (P09483 whole entry): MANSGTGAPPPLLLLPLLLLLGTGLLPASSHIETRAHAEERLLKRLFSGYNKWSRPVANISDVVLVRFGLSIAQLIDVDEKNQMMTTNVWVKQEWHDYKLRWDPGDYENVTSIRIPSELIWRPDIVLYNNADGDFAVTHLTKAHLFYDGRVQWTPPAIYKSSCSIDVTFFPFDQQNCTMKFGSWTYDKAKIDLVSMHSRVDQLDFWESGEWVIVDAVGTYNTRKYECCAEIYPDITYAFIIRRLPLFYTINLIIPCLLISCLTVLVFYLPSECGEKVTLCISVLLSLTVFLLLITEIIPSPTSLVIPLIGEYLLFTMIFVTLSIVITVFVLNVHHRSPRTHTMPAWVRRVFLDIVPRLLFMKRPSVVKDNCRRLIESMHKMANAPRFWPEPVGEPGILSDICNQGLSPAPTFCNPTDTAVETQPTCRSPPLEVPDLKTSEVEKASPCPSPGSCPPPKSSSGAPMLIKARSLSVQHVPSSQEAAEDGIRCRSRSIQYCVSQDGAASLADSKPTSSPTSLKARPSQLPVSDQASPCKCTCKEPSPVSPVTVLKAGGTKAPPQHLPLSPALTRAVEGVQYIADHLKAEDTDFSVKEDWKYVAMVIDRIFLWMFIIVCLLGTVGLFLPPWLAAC
Neuronal acetylcholine receptor; alpha4/beta2 (Rattus norvegicus, UniProt P09483+P12390), sequence (P12390 whole entry): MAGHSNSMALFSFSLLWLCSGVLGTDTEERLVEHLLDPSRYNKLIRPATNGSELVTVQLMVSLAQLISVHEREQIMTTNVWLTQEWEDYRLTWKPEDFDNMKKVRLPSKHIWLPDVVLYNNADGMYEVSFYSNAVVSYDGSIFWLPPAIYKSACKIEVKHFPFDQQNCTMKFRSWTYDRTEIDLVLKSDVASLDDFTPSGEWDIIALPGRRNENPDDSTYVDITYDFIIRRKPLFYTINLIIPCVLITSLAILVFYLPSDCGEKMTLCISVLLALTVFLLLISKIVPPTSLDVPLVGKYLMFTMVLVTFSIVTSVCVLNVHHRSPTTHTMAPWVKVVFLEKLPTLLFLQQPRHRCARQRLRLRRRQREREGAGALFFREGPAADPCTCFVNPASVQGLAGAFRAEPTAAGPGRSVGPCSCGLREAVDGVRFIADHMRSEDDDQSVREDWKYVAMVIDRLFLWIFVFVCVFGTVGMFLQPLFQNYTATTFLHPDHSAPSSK
T2 sequence (P17787 whole entry): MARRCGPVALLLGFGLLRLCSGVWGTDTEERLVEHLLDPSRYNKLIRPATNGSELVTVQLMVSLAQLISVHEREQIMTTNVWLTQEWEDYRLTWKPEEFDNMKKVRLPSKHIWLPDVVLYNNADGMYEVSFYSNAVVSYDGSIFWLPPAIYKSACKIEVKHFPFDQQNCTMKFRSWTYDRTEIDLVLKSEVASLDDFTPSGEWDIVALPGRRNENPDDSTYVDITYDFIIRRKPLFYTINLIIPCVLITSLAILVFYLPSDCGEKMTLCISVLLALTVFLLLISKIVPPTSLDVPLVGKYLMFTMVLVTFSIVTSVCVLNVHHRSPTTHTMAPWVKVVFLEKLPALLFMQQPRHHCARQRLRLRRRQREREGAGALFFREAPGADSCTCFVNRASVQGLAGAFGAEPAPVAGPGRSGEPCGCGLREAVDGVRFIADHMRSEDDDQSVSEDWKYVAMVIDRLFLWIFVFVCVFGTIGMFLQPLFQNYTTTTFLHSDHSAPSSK
T2 sequence (P43681 whole entry): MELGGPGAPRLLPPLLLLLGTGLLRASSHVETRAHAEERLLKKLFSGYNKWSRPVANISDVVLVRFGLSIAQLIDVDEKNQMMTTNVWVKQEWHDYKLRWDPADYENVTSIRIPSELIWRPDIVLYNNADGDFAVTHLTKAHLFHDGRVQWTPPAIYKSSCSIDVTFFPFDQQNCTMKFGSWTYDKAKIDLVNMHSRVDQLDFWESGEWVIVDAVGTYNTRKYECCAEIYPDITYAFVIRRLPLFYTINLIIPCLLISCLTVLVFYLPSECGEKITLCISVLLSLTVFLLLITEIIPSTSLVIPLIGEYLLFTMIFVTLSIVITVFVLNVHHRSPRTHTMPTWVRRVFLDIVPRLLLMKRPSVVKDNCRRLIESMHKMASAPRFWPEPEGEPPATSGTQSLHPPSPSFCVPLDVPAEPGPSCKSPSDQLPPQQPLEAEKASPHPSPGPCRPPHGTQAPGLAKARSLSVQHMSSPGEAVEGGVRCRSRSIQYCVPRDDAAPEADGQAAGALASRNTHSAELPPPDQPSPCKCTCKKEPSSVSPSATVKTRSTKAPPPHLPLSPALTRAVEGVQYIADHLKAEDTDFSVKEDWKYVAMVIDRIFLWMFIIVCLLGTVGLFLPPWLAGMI

| Structure (SMILES) | Emax [1] | EC50 [2] | Emax [3] | EC50 [4] | Ki [5] | Ki [6] | Ki [7] | Ki [8] |
| --- | --- | --- | --- | --- | --- | --- | --- | --- |
| O=C(c1ccco1)N1CC2CNC(C2)C1 (configuration not stated) | 34% | 6.9 µM | 65% | 2.6 µM | 7.8 µM | 1.7 µM | – | – |
| O=C(c1ccco1)N1CC2CNCC2C1 (configuration not stated) | 32% | 42 µM | 170% | 4.5 µM | 5.9 µM | 72 µM | 0.053 µM | – |
| O=C(c1ccc(Br)o1)N1C[C@@H]2CN[C@H](C2)C1 | 61% | 16 µM | 27% | 12 µM | 8.2 µM | 1.5 µM | 0.057 µM | 0.009 µM |
| O=C(c1occc1Br)N1CC2CNCC2C1 (configuration not stated) | 83% | 27 µM | 90% | 4.2 µM | 6.3 µM | 3.8 µM | 0.008 µM | 0.002 µM |
| O=C(c1ccco1)N1C[C@H]2CN[C@@H](C2)C1 | 120% | 17 µM | 83% | 4.7 µM | 0.56 µM | 1.7 µM | 0.097 µM | 0.015 µM |
| O=C(c1ccc(Br)o1)N1C[C@H]2CN[C@@H](C2)C1 | 43% | 13 µM | 50% | 4.8 µM | 14 µM | 3 µM | 0.085 µM | 0.045 µM |
| O=C(c1ccccc1)N1CC2CNCC(C2)C1 | 8% | 28 µM | 8% | 100 µM | 34 µM | 100 µM | 1.7 µM | 0.92 µM |
| O=C(c1ccc(F)o1)N1CC2CNCC2C1 (configuration not stated) | 55% | 31 µM | 140% | 5.8 µM | 1.2 µM | 12 µM | 0.051 µM | 0.008 µM |
| O=C(c1ccncc1)N1CC2CNCC2C1 (configuration not stated) | 33% | 32 µM | 56% | 21 µM | 15 µM | 5.4 µM | 0.02 µM | 0.067 µM |
| O=C(c1occc1Cl)N1CC2CNCC2C1 (configuration not stated) | 110% | 22 µM | 79% | 17 µM | 2.6 µM | 2.4 µM | 0.012 µM | 0.002 µM |
| COc1ccc(C(=O)N2CC3CNCC(C3)C2)cc1 | 7% | 28 µM | 6% | 4.3 µM | 100 µM | 27 µM | 0.38 µM | 0.06 µM |
| O=C(C1CC1)N1CC2CNCC2C1 (configuration not stated) | 130% | 4.9 µM | 110% | 0.47 µM | 0.84 µM | 0.67 µM | 0.007 µM | 0.004 µM |
| N#Cc1ccoc1C(=O)N1CC2CNCC2C1 (configuration not stated) | 96% | 22 µM | 76% | 100 µM | 8.8 µM | 3.2 µM | 0.068 µM | 0.013 µM |
| Cc1ccoc1C(=O)N1CC2CNCC2C1 (configuration not stated) | 40% | 23 µM | 64% | 14 µM | 3.7 µM | 2.2 µM | 0.022 µM | 0.032 µM |
| O=C(c1ccoc1)N1CC2CNCC2C1 (configuration not stated) | 31% | 35 µM | 110% | 5.8 µM | 100 µM | 4.8 µM | – | 0.019 µM |
| N#Cc1ccc(C(=O)N2CC3CNCC3C2)o1 (configuration not stated) | 14% | 61 µM | 90% | 24 µM | > 10 µM | 4.8 µM | – | 0.053 µM |
| O=C(c1ccc(F)o1)N1C[C@@H]2CN[C@H](C2)C1 | 110% | 6.9 µM | 110% | 2.1 µM | 14 µM | 0.9 µM | 0.017 µM | 0.005 µM |
| N#Cc1coc(C(=O)N2CC3CNCC3C2)c1 (configuration not stated) | 21% | 31 µM | 22% | 11 µM | 8.6 µM | 8.7 µM | 0.12 µM | 0.027 µM |
| O=C(c1cnco1)N1CC2CNCC2C1 (configuration not stated) | 11% | 35 µM | 110% | 4.2 µM | 7.6 µM | 11 µM | 0.13 µM | 0.11 µM |
| O=C(c1ccccc1)N1CC2CNCC2C1 (configuration not stated) | 18% | 28 µM | 9% | 36 µM | 20 µM | 15 µM | 0.0011 µM | 0.2 µM |
| Cc1ccc(C(=O)N2CC3CNCC3C2)o1 (configuration not stated) | 7% | 57 µM | 44% | 22 µM | 8.2 µM | > 10 µM | 0.23 µM | 0.042 µM |
| O=C(c1ccc(Cl)o1)N1C[C@H]2CN[C@@H](C2)C1 | 100% | 14 µM | 92% | 3 µM | 14 µM | 5.2 µM | 0.12 µM | 0.016 µM |
| O=C(C1CC1)N1CC2CNC(C2)C1 (configuration not stated) | 150% | 4.2 µM | 100% | 1.7 µM | 0.35 µM | 0.42 µM | 0.001 µM | 0.004 µM |
| O=C(c1occc1F)N1CC2CNCC2C1 (configuration not stated) | 35% | 44 µM | 96% | 4.8 µM | > 10 µM | 6.5 µM | 0.054 µM | 0.023 µM |
| O=C(c1ccncc1)N1CC2CNC(C2)C1 (configuration not stated) | 110% | 9.2 µM | 8% | 42 µM | 1.3 µM | 1.5 µM | 0.025 µM | – |
| O=C(C1CC1)N1CC2CNCC(C2)C1 | 160% | 1.2 µM | 46% | 0.85 µM | 0.02 µM | 0.11 µM | 0.002 µM | 0.001 µM |
| O=C(c1cccnc1)N1CC2CNCC2C1 (configuration not stated) | 55% | 29 µM | 58% | 30 µM | 20 µM | 4.4 µM | 0.16 µM | 0.49 µM |
| O=C(c1cc(F)co1)N1CC2CNCC2C1 (configuration not stated) | 17% | 36 µM | 130% | 1.4 µM | > 10 µM | 8.3 µM | – | 0.032 µM |
